Measurements taken from ChEMBL document CHEMBL2424579, “Quinazolin-4-one derivatives as selective histone deacetylase-6 inhibitors for the treatment of Alzheimer's disease” (J Med Chem, 2013).
Active and inactive are the calls of the source. The calls are words filed in the database; no cut-off is given here.

Tests used:
[1] = molecular target: T1, Protein deacetylase HDAC6 (Homo sapiens, UniProt Q9UBN7); experiment: Inhibition of human recombinant HDAC6 expressed in baculovirus/sf9 cells using RHKKAc as substrate
T1 sequence (Q9UBN7 whole entry): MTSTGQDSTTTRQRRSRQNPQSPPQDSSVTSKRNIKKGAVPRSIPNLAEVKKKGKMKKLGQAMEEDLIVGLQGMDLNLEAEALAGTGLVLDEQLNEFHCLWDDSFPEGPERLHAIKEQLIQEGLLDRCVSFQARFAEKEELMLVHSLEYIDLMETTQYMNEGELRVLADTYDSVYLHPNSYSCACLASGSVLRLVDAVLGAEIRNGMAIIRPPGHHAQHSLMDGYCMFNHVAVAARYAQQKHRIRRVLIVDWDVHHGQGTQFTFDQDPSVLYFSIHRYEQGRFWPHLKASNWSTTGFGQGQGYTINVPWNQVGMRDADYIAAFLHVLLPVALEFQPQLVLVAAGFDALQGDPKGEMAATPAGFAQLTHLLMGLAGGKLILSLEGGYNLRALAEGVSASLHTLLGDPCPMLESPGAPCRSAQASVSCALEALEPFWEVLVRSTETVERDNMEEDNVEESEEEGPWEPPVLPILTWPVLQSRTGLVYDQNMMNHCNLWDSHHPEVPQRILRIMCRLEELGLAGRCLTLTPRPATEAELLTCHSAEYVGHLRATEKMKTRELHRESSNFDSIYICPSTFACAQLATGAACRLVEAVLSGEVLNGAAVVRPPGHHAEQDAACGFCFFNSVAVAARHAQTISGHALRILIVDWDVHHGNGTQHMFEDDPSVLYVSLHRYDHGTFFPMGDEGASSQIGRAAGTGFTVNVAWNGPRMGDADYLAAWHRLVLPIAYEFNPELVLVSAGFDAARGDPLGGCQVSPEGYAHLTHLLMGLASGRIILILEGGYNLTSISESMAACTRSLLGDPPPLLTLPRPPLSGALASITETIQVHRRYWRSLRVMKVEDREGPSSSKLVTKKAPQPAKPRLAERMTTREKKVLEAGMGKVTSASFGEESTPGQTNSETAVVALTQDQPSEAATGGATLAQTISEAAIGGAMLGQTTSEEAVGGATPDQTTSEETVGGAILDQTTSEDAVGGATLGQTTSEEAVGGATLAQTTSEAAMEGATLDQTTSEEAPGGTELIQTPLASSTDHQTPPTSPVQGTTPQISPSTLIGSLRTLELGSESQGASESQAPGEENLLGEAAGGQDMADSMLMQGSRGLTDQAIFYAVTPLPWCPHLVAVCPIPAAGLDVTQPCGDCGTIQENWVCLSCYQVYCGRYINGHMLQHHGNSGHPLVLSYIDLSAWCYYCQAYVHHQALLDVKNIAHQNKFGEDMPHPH

SH-SY5Y [2] = experiment: Increase of synaptic activity in human SH-SY5Y cells after 5 days by fluorescence assay; format: functional, cell-based; details: 120 h
Cytochrome P450 2D6 = Cytochrome P450 2D6 (Homo sapiens, UniProt P10635); experiment: Inhibition of CYP2D6 (unknown origin) using 3-cyano-7-ethoxycoumarin as substrate; format: ADME
Chain of Cytochrome P450 2D6 (P10635 whole entry): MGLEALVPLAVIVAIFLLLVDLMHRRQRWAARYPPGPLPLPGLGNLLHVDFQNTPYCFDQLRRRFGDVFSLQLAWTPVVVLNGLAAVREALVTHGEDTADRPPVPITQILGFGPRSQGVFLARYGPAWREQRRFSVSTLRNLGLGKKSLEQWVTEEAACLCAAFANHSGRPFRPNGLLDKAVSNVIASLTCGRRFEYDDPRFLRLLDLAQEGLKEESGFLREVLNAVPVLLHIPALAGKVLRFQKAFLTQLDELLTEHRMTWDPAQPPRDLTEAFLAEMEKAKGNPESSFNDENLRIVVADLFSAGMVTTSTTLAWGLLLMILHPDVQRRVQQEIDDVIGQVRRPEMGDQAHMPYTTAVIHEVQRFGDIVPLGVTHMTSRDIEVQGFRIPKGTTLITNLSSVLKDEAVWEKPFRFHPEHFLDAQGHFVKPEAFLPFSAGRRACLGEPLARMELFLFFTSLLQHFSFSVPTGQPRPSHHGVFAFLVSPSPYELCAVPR

SH-SY5Y [3] = experiment: Induction of neurite outgrowth in human SH-SY5Y cells after 5 days; format: functional, cell-based; details: 120 h
Histone deacetylase 2 [4] = molecular target: T2, Histone deacetylase 2 (Homo sapiens, UniProt Q92769); experiment: Inhibition of human recombinant HDAC2 expressed in baculovirus/sf9 cells using RHKKAc as substrate
T2 sequence (Q92769 whole entry): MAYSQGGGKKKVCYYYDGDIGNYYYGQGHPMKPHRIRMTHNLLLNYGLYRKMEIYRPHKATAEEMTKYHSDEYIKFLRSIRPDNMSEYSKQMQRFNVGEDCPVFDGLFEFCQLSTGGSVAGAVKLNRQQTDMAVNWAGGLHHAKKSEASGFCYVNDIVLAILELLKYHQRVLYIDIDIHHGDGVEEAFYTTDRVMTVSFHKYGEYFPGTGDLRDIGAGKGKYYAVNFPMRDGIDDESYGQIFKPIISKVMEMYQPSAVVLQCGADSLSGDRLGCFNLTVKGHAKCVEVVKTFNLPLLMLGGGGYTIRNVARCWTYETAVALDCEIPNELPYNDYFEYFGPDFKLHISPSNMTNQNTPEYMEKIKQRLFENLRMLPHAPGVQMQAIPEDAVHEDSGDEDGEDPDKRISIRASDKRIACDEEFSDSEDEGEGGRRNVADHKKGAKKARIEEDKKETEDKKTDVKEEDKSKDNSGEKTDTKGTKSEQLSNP

Cytochrome P450 3A4 = Cytochrome P450 3A4 (Homo sapiens, UniProt P08684); experiment: Inhibition of CYP3A4 (unknown origin) using Vivid BOMR as substrate; format: ADME
Chain of Cytochrome P450 3A4 (P08684 whole entry): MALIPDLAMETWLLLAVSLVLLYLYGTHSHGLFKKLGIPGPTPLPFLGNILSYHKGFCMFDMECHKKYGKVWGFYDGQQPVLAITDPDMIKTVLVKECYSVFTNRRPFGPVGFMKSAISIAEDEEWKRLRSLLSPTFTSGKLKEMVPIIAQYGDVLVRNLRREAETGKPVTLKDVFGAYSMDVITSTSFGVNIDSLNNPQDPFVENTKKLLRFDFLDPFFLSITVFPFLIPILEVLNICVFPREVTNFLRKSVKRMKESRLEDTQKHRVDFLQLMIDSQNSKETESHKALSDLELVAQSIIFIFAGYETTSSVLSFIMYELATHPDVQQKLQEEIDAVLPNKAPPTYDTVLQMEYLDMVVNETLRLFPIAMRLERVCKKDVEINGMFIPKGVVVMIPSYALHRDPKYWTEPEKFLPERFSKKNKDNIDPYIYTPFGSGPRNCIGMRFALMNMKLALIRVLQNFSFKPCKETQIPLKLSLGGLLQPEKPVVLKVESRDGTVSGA

PC-12 [5] = experiment: Induction iof GAP-43 protein expression in rat PC12 cells after 48 hrs by Western blotting analysis; format: functional, cell-based
PC-12 [6] = experiment: Increase of synaptic activity in rat PC12 cells after 5 days by fluorescence assay; format: functional, cell-based; details: PC-12, 120 h
PC-12 [7] = experiment: Inhibition of HDAC6 in rat PC12 cells assessed as induction of alpha-tubulin acetylation after 48 hrs by Western blotting analysis; format: cell-based
PC-12 [8] = experiment: Cytotoxicity against rat PC12 cells at 25 uM; format: cell-based; details: pc-12, 25 µM
PC-12 [9] = experiment: Induction of neurite outgrowth in rat PC12 cells after 5 days; format: functional, cell-based; details: PC-12, 120 h
Cytochrome P450 2C19 = Cytochrome P450 2C19 (Homo sapiens, UniProt P33261); experiment: Inhibition of CYP2C19 (unknown origin) using 3-cyano-7-ethoxycoumarin as substrate; format: ADME
Chain of Cytochrome P450 2C19 (P33261 whole entry): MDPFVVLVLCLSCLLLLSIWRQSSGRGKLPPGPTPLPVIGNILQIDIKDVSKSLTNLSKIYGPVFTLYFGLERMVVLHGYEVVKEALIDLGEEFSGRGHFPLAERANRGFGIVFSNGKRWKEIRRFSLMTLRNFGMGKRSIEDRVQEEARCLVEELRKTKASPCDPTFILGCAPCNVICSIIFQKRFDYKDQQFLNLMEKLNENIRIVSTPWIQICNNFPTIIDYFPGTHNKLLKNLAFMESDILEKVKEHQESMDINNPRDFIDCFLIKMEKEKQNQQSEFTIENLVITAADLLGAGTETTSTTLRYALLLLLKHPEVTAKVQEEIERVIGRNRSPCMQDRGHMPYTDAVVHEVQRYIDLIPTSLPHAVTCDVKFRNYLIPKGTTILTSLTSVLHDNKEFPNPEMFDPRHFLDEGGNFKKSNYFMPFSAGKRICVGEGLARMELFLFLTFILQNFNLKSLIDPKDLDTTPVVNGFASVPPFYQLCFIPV

SH-SY5Y [10] = experiment: Induction of neurite outgrowth in human SH-SY5Y cells at 10 uM after 5 days; format: functional, cell-based
[11] = molecular target: Poly [ADP-ribose] polymerase 1 (Homo sapiens) (UniProt P09874); experiment: Inhibition of PARP1 (unknown origin) up to 25 uM
Chain of Poly [ADP-ribose] polymerase 1 (Homo sapiens) (P09874 whole entry): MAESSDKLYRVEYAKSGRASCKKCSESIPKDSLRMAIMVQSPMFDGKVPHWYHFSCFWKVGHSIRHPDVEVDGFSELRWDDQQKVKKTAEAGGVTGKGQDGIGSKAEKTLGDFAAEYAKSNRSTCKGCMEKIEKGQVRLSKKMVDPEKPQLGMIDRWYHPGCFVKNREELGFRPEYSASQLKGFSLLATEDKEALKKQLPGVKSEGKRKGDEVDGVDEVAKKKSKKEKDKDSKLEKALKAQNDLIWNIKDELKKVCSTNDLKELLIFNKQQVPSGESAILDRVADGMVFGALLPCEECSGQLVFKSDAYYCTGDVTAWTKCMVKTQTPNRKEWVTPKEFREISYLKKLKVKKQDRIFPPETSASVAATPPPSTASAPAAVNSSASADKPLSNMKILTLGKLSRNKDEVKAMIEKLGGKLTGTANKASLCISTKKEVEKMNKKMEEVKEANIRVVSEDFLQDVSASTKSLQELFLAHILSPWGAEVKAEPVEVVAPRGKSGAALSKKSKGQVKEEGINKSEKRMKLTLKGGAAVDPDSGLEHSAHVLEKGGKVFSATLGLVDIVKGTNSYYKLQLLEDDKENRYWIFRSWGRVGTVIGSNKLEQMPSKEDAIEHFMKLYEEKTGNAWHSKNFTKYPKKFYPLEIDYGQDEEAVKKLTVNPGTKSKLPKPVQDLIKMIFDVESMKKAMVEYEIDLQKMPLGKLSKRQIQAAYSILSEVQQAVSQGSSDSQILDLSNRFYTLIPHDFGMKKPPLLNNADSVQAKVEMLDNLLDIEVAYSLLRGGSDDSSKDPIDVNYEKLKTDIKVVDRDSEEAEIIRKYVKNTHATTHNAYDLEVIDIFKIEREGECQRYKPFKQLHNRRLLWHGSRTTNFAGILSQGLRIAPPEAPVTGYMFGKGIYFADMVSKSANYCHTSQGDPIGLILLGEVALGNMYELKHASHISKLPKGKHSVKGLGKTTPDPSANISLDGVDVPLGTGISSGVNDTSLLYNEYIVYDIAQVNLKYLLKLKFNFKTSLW

Cytochrome P450 2C9 = Cytochrome P450 2C9 (Homo sapiens, UniProt P11712); experiment: Inhibition of CYP2C9 (unknown origin) using Vivid OOMR as substrate; format: ADME
Chain of Cytochrome P450 2C9 (P11712 whole entry): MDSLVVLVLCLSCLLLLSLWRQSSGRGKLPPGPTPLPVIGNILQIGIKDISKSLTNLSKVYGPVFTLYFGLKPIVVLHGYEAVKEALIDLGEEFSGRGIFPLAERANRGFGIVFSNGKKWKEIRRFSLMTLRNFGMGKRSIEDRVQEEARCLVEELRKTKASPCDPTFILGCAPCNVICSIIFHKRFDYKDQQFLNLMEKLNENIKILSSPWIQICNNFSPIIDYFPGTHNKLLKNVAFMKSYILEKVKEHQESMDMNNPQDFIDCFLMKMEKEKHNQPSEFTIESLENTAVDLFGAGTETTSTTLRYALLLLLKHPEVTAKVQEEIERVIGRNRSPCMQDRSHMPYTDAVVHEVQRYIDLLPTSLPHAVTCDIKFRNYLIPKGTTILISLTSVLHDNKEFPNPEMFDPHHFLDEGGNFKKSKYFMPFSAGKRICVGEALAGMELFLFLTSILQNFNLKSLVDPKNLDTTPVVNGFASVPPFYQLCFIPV

Vero = experiment: Cytotoxicity against african green monkey Vero cells at 25 uM; format: cell-based; details: chlorocebus sabaeus
Histone deacetylase 8 = molecular target: T3, Histone deacetylase 8 (Homo sapiens, UniProt Q9BY41); experiment: Inhibition of human recombinant HDAC8 expressed in baculovirus/sf9 cells using RHKAcKAc as substrate
T3 sequence (Q9BY41 whole entry): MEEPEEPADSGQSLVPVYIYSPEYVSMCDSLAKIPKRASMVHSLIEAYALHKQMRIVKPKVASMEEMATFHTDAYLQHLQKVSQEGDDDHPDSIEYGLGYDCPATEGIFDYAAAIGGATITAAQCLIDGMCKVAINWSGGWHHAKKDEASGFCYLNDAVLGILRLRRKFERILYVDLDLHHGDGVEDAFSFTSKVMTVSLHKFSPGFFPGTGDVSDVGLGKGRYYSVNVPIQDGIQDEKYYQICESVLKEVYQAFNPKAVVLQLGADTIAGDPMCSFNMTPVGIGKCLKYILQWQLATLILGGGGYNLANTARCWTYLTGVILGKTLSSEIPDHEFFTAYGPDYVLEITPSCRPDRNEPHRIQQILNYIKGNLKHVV

Cytochrome P450 1A2 = Cytochrome P450 1A2 (Homo sapiens, UniProt P05177); experiment: Inhibition of CYP1A2 (unknown origin) using 3-cyano-7-ethoxycoumarin as substrate; format: ADME
Chain of Cytochrome P450 1A2 (P05177 whole entry): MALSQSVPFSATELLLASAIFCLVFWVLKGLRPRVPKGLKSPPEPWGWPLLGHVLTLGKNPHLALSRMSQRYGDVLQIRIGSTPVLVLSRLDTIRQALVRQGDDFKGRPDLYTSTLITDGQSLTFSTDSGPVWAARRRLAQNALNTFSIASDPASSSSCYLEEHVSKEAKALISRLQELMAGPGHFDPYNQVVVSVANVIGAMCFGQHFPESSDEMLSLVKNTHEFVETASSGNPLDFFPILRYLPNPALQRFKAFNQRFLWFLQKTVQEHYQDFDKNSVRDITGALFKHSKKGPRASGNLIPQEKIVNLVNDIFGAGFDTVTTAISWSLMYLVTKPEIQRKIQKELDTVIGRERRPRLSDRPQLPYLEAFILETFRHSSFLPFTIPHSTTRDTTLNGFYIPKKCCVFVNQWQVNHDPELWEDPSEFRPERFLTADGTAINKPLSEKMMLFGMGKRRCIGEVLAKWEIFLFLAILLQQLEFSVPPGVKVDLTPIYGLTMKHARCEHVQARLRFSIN

PC-12 [12] = experiment: Induction of neurite outgrowth in rat PC12 cells at 10 uM after 5 days; format: functional, cell-based
Histone deacetylase 11 = molecular target: T4, Histone deacetylase 11 (Homo sapiens, UniProt Q96DB2); experiment: Inhibition of human recombinant HDAC11 expressed in baculovirus/sf9 cells using RHKKAc as substrate
T4 sequence (Q96DB2 whole entry): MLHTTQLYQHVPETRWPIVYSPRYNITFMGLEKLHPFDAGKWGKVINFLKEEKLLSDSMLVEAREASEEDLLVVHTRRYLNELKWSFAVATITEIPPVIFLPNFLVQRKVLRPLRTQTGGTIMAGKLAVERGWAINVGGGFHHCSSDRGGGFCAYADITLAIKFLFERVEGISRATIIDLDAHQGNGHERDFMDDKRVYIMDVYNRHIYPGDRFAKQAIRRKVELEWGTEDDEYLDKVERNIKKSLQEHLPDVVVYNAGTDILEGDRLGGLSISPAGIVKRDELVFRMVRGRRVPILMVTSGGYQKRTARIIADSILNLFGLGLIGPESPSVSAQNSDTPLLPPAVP

[13] = Cytotoxicity against human SH-SY5Y cells at 25 uM; format: cell-based
Histone deacetylase 2 [14] = molecular target: T2, Histone deacetylase 2; experiment: Inhibition of human recombinant HDAC2 expressed in baculovirus/sf9 cells using RHKKAc as substrate at 1 uM
[15] = molecular target: Polyamine deacetylase HDAC10 (Homo sapiens) (UniProt Q969S8); experiment: Inhibition of human recombinant HDAC10 expressed in baculovirus/sf9 cells using RHKKAc as substrate at 1 uM
Histone deacetylase 1 [16] = molecular target: T5, Histone deacetylase 1 (Homo sapiens, UniProt Q13547); experiment: Inhibition of human recombinant HDAC1 expressed in baculovirus/sf9 cells using RHKKAc as substrate at 1 uM
T5 sequence (Q13547 whole entry): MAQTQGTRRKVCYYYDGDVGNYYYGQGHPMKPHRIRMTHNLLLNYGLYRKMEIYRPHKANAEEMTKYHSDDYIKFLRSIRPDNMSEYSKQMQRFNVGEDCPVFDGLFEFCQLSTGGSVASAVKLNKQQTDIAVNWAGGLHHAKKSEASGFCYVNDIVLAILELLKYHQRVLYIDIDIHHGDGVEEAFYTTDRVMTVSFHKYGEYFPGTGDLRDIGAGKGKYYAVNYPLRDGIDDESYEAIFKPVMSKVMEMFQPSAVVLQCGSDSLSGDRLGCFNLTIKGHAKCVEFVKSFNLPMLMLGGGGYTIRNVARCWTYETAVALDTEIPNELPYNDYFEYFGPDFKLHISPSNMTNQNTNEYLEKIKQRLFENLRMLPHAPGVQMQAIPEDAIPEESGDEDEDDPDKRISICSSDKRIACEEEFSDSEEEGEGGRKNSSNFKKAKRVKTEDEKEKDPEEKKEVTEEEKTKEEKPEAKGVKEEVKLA

[17] = molecular target: Histone deacetylase 8 (Homo sapiens) (UniProt Q9BY41); experiment: Inhibition of human recombinant HDAC8 expressed in baculovirus/sf9 cells using RHKAcKAc as substrate at 1 uM
[18] = molecular target: Histone deacetylase 11 (Homo sapiens) (UniProt Q96DB2); experiment: Inhibition of human recombinant HDAC11 expressed in baculovirus/sf9 cells using RHKKAc as substrate at 1 uM
[19] = molecular target: Protein deacetylase HDAC6 (Homo sapiens) (UniProt Q9UBN7); experiment: Inhibition of human recombinant HDAC6 expressed in baculovirus/sf9 cells using RHKKAc as substrate at 1 uM
Mus musculus [20] = experiment: Antialzheimer activity in wild type learning-impaired Balb/c mouse model with hippocampal lesions at 10 mg/kg, ip administered for 30 days by rotarod test relative to vehicle-treated control; details: Hippocampus, TDE = time-dependent effect
Histone deacetylase 1 [21] = molecular target: T5, Histone deacetylase 1; experiment: Inhibition of human recombinant HDAC1 expressed in baculovirus/sf9 cells using RHKKAc as substrate
[22] = molecular target: Amyloid-beta precursor protein (Homo sapiens, UniProt P05067); experiment: Inhibition of amyloid beta aggregation (unknown origin) after 4 hrs by thioflavin S assay in absence of Zn2+
Mus musculus [23] = experiment: Antialzheimer activity in wild type learning-impaired Balb/c mouse model with hippocampal lesions assessed as increase in acetylated alpha-tubulin level in hippocampus region at 10 mg/kg, ip administered for 30 days by rotarod test
PC-12 [24] = experiment: Induction iof GAP-43 protein expression in rat PC12 cells at 0.1 uM after 48 hrs by Western blotting analysis; format: functional, cell-based
PC-12 [25] = experiment: Inhibition of HDAC6 in rat PC12 cells assessed as acetylation of histone H3 at 10 uM after 48 hrs by Western blotting analysis; format: cell-based
PC-12 [26] = experiment: Inhibition of HDAC6 in rat PC12 cells assessed as induction of alpha-tubulin acetylation at 10 uM after 48 hrs by Western blotting analysis; format: cell-based

With CCc1nc2c(Cc3ccc(C(=O)NO)cc3)cccc2c(=O)n1CCc1ccccc1 the IC50 [1] was 79 nM, the EC50 (SH-SY5Y [2]) was 8.3 µM and the IC50 (Cytochrome P450 2D6) was over 10 µM. It also gave an EC50 (SH-SY5Y [3]) of 8.1 µM, an IC50 (Histone deacetylase 2 [4]) of over 10 µM and an IC50 (Cytochrome P450 3A4) of 0.1 µM. The Activity (PC-12 [5]) was “Dose-dependent effect”, the EC50 (PC-12 [6]) was 6.7 µM and the inhibition (PC-12 [7]) was “Dose-dependent effect”. The Activity (PC-12 [8]) was “Non-toxic”, the EC50 (PC-12 [9]) was 6.2 µM and the IC50 (Cytochrome P450 2C19) was 3.3 µM. For the same molecule, the Activity (SH-SY5Y [10]) was “Active”, the inhibition [11] was “inactive” and the IC50 (Cytochrome P450 2C9) was 2.1 µM. The Activity (Vero) was “Non-toxic”, the IC50 (Histone deacetylase 8) was 282 nM and the IC50 (Cytochrome P450 1A2) was over 10 µM. The Activity (PC-12 [12]) was “Active”, the IC50 (Histone deacetylase 11) was 37.1 µM and the Activity [13] was “Non-toxic”.
In the case of CCc1nc2c(-c3ccc(C(=O)NO)cc3)cccc2c(=O)n1CCc1ccccc1, the inhibition (Histone deacetylase 2 [14]) is reported as “inactive”, the inhibition [15] is reported as “inactive” and the inhibition (Histone deacetylase 1 [16]) is reported as “inactive”. For the same molecule, the inhibition [17] was 50%, the inhibition [18] was “inactive” and the inhibition [19] was 50%.
With Cc1nc2cc(/C=C/C(=O)NO)ccc2c(=O)n1CCc1ccccc1 the IC50 [1] was 29 nM, the EC50 (SH-SY5Y [2]) was 6.8 µM and the Activity (Mus musculus [20]) was “tde”. It also gave an IC50 (Cytochrome P450 2D6) of over 10 µM, an EC50 (SH-SY5Y [3]) of 9.2 µM and an IC50 (Histone deacetylase 2 [4]) of 6.45 µM. The IC50 (Cytochrome P450 3A4) was 6.5 µM, the Activity (PC-12 [5]) was “Dose-dependent effect” and the EC50 (PC-12 [6]) was 6.5 µM. For the same molecule, the IC50 (Histone deacetylase 1 [21]) was 1880 nM, the Activity (PC-12 [8]) was “Non-toxic” and the EC50 (PC-12 [9]) was 7.3 µM. The IC50 (Cytochrome P450 2C19) was over 10 µM, the Activity (SH-SY5Y [10]) was “Active” and the inhibition [11] was “inactive”. For the same molecule, the IC50 (Cytochrome P450 2C9) was 9.1 µM, the IC50 [22] was over 50 µM and the Activity (Mus musculus [23]) was “Active”. For the same molecule, the Activity (Vero) was “Non-toxic”, the IC50 (Histone deacetylase 8) was 1750 nM and the Activity (PC-12 [24]) was “Active”. For the same molecule, the inhibition (PC-12 [25]) was “Active”, the IC50 (Cytochrome P450 1A2) was over 10 µM and the Activity (PC-12 [12]) was “Active”. The inhibition (PC-12 [26]) was “Active”, the IC50 (Histone deacetylase 11) was 4.08 µM and the Activity [13] was “Non-toxic”.
